By IC50 is commonly meant the concentration needed to halve the response being measured.

In test [1] the target is T1, human CB1 receptor (Homo sapiens, UniProt P21554).
T1 construct: expressed in transfected cells; host or cells: HEK293
Description: bioSensAll GAPL-Gi2 BRET biosensor assay in HEK293 cells transfected with hCB1; test compound added before EC75-80 of agonist CP55,940 (0.1 nM). The test is classed as cell-based. Particulars: vs CP55,940 0.1 nM (EC75-80), read-out: CB1 wt Gi2 IC50. A digest of the protocol:
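Test compounds at 12 doses up to 600 nM preceded a 0.1 nM CP55,940 challenge in hCB1/GAPL-Gi2 HEK293 cells. After overnight 37° C incubation, methoxy e-coelenterazine (2 µM final) was added and the 515/400 nm BRET ratio normalized to positive and negative controls.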
Background: BRET reads energy transfer from a luciferase to a nearby fluorophore.

For test [2], the target named is T1, human CB1 receptor. Description: bioSensAll β-arrestin2 plasma membrane translocation (+GRK2) BRET biosensor assay in HEK293 cells transfected with hCB1; test compound added before EC75-80 of agonist CP55,940 (100 nM). The class given is cell-based. Particulars: βArrestin2 (+GRK2) BRET biosensor, vs CP55,940 100 nM (EC75-80), read-out: CB1 wt βarr2 IC50. A digest of the protocol:
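HEK293 cells co-transfected with hCB1 and β-arrestin2 PM-translocation BRET biosensor (+GRK2); 48 h post-transfection in HBSS, test compound (0–600 nM, 12 points) added 3–5 min before CP55,940 at 100 nM (EC75-80). Overnight incubation at 37 °C; BRET (515/400 nm) read after 2 µM e-coelenterazine Prolume Purple, standardized to controls.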

T1 sequence (P21554 whole entry): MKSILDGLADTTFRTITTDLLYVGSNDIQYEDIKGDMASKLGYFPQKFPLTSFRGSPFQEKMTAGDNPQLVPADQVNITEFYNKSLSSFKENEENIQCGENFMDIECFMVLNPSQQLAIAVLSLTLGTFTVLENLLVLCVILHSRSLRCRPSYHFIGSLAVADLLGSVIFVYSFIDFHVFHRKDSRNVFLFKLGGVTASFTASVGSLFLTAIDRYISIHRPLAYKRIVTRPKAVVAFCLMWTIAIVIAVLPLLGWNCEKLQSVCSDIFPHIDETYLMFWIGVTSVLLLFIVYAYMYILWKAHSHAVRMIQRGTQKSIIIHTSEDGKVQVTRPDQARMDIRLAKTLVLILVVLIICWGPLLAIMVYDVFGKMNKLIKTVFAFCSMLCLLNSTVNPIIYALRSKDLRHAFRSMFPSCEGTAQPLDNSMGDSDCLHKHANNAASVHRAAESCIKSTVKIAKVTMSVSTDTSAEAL

In the case of `C[C@@H](CO)Oc1nc(N2CCC(C)(C(N)=O)CC2)c2nc(-c3ccccc3Cl)n(-c3ccc(Cl)cc3)c2n1` [Compound 82, 1-[8-(2-chlorophenyl)-9-(4-chlorophenyl)-2-[(1S)-2-hydroxy-1-methyl-ethoxy]purin-6-yl]-4-methyl-piperidine-4-carboxamide], the figures for the IC50 at human CB1 receptor [1] and on human CB1 receptor [2] were 0.753 nM and 4.49 nM, respectively.

`CCNC1(C(N)=O)CCN(c2nc(N3CCC[C@H]3CO)nc3c2nc(-c2ccccc2Cl)n3-c2ccc(Cl)cc2)CC1` [Compound 143]: the IC50 turned out to be 0.837 nM at human CB1 receptor [1] and 1.59 nM on human CB1 receptor [2].

On to `CC(C)(C)OC(=O)NCCOc1nc(N2CCC(C)(C(N)=O)CC2)c2nc(-c3ccccc3Cl)n(-c3ccc(Cl)cc3)c2n1` [Compound 60, tert-butyl N-[2-[6-(4-carbamoyl-4-methyl-1-piperidyl)-8-(2-chlorophenyl)-9-(4-chlorophenyl)purin-2-yl]oxyethyl]carbamate], for which the concentration for half-maximal inhibition (IC50) at human CB1 receptor [1] stood at 6.96 nM; at human CB1 receptor [2], 19.3 nM.

Regarding `CN(CCO)c1nc(N2CCC(C)(C(N)=O)CC2)c2nc(-c3ccccc3)n(-c3ccc(Cl)cc3)c2n1` [Compound 48, 1-[9-(4-chlorophenyl)-2-[2-hydroxyethyl(methyl)amino]-8-phenyl-purin-6-yl]-4-methyl-piperidine-4-carboxamide], the IC50 at human CB1 receptor [1] came out at 1.2 nM; at human CB1 receptor [2], 5.91 nM.

As for `C[C@@H](O)CN(C)c1nc(N2CCC(C)(C(N)=O)CC2)c2nc(-c3ccccc3Cl)n(-c3ccc(Cl)cc3)c2n1` [Compound 54, 1-[8-(2-chlorophenyl)-9-(4-chlorophenyl)-2-[[(2R)-2-hydroxypropyl]-methyl-amino]purin-6-yl]-4-methyl-piperidine-4-carboxamide], the IC50 amounted to 0.427 nM on human CB1 receptor [1] and 1.12 nM on human CB1 receptor [2].

For `CCNC1(C(N)=O)CCN(c2nc(NCCO)nc3c2nc(-c2ccccc2Cl)n3-c2ccc(Cl)cc2)CC1` [Compound 141], the half-maximal inhibitory concentration (IC50) on human CB1 receptor [1] came out at 0.982 nM; at human CB1 receptor [2], 2.28 nM.

In the case of `CC(C)(O)COc1nc(N2CC(C)(O)C2)c2nc(-c3ccc(C#N)nc3)n(-c3ccc(Cl)cc3)c2n1` [Compound 112, 5-[9-(4-chlorophenyl)-6-(3-hydroxy-3-methyl-azetidin-1-yl)-2-(2-hydroxy-2-methyl-propoxy)purin-8-yl]pyridine-2-carbonitrile], the IC50 was 88.3 nM on human CB1 receptor [1] and 105 nM at human CB1 receptor [2].

With `CCNC1(C(N)=O)CCN(c2nc(N3CCCCC3)nc3c2nc(-c2ccccc2Cl)n3-c2ccc(Cl)cc2)CC1` [Compound 150], the IC50 at human CB1 receptor [1] was determined as 2.67 nM; on human CB1 receptor [2], 8.17 nM.

In the case of `CCNC1(C(N)=O)CCN(c2nc(NCc3ccccc3)nc3c2nc(-c2ccccc2Cl)n3-c2ccc(Cl)cc2)CC1` [Compound 151], the IC50 on human CB1 receptor [1] amounted to 4.46 nM; on human CB1 receptor [2], 12.9 nM.

On to `CN(CCO)c1nc(N2CCOCC2)c2nc(-c3ccccc3Cl)n(-c3ccc(Cl)cc3)c2n1` [Compound 183], for which the IC50 on human CB1 receptor [1] came to 0.167 nM; at human CB1 receptor [2], 0.785 nM.

For `CC(C)(O)COc1nc(N2C[C@@H]3C[C@H]2CO3)c2nc(-c3ccccc3Cl)n(-c3ccc(Cl)cc3)c2n1` [Compound 204], the results for the IC50 at human CB1 receptor [1] and at human CB1 receptor [2] were 3.96 nM and 16.6 nM, respectively.

Regarding `CS(=O)(=O)CCNc1nc(N2CCC(C(F)(F)F)CC2)c2nc(-c3ccccc3Cl)n(-c3ccc(Cl)cc3)c2n1` [Compound 28, 8-(2-chlorophenyl)-9-(4-chlorophenyl)-N-(2-methylsulfonylethyl)-6-[4-(trifluoromethyl)-1-piperidyl]purin-2-amine], the IC50 at human CB1 receptor [1] amounted to 1.02 nM; at human CB1 receptor [2], 12.2 nM.

Regarding `Cc1cc(C#N)ncc1-c1nc2c(N3CCC(C)(C(N)=O)CC3)nc(OCC(C)(C)O)nc2n1-c1ccc(Cl)cc1` [Compound 108, 1-[9-(4-chlorophenyl)-8-(6-cyano-4-methyl-3-pyridyl)-2-(2-hydroxy-2-methyl-propoxy)purin-6-yl]-4-methyl-piperidine-4-carboxamide], the values for the IC50 on human CB1 receptor [1] and on human CB1 receptor [2] were 3.51 nM and 26.2 nM, respectively.

With `COC(=O)N1CCN(c2nc(N(C)CCO)nc3c2nc(-c2ccccc2Cl)n3-c2ccc(Cl)cc2)CC1` [Compound 173], the half-inhibitory concentration (IC50) at human CB1 receptor [1] is 0.419 nM; at human CB1 receptor [2], 1.51 nM.

In the case of `CC(C)n1cncc1-c1nc2c(N3CCC(C)(C(N)=O)CC3)nc(N(C)CCO)nc2n1-c1ccc(Cl)cc1` [Compound 59, 1-[9-(4-chlorophenyl)-2-[2-hydroxyethyl(methyl)amino]-8-(3-isopropylimidazol-4-yl)purin-6-yl]-4-methyl-piperidine-4-carboxamide], the IC50 on human CB1 receptor [1] and at human CB1 receptor [2] was greater than 5000 nM in each case.

In the case of `CN(CCO)c1nc(N2CCC(F)(F)CC2)c2nc(-c3ccccc3Cl)n(-c3ccc(Cl)cc3)c2n1` [Compound 184], the IC50 is 0.24 nM at human CB1 receptor [1] and 0.889 nM at human CB1 receptor [2].

As to `CC(=O)NC1(C)CCN(c2nc(OCC(C)(C)O)nc3c2nc(-c2ccccc2Cl)n3-c2ccc(Cl)cc2)CC1` [Compound 226], the IC50 on human CB1 receptor [1] was 0.767 nM; on human CB1 receptor [2], 2.31 nM.

In the case of `CC1(C(N)=O)CCN(c2nc(NCCO)nc3c2nc(-c2ccccc2Cl)n3-c2ccc(Cl)cc2)CC1` [Compound 56, 1-[8-(2-chlorophenyl)-9-(4-chlorophenyl)-2-(2-hydroxyethylamino)purin-6-yl]-4-methyl-piperidine-4-carboxamide], the IC50 was determined as 0.83 nM on human CB1 receptor [1] and 5.41 nM at human CB1 receptor [2].

Source of the values: patent US20250333418A1, “PURINE COMPOUNDS, COMPOSITIONS COMPRISING THEM AND USES THEREOF” (Novo Nordisk A/S, priority 2022, published 2025).
